Here are results for one substance from patent US9717775B2 (priority 2006, dated 2017).

The target of one test is α9α10 nAChR (Rattus norvegicus, UniProt P43144+Q9JLB5). The test is classed as cell-based.
The test system of a further test is α6/α3β2β3 nAChR. Format: cell-based, rat.
Another test has as its system α6/α3β4 nAChR. Format: cell-based, rat.

Sequence of α9α10 nAChR (P43144 26-479 limits assumed): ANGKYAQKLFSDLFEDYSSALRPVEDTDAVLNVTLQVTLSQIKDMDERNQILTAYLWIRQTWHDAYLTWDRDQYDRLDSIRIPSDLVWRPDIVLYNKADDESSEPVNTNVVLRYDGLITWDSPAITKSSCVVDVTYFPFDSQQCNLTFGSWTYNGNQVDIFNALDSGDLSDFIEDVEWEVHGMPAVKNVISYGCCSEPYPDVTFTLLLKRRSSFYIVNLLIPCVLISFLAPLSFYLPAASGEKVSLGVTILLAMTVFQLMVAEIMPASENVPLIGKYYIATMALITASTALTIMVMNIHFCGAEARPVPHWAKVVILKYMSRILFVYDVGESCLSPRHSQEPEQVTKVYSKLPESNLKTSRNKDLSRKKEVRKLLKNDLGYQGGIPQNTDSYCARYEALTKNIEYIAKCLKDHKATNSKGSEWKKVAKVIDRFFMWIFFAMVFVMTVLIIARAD
Sequence of α9α10 nAChR (Q9JLB5 25-447 limits assumed): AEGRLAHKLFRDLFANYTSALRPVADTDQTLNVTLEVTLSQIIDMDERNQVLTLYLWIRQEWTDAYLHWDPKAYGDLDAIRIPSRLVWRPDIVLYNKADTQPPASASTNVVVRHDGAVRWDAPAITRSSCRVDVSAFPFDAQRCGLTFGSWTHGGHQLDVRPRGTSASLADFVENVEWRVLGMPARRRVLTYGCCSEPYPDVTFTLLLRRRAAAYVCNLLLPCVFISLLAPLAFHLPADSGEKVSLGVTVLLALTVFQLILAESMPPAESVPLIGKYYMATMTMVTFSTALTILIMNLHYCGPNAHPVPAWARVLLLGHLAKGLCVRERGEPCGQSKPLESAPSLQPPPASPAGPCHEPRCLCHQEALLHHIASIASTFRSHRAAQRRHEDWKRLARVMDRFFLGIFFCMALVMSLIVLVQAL

Consider α-conotoxin Vc1.1 [reference compound], for which, on α9α10 nAChR, the Hill slope stood at 0.702±0.11. The IC50 against α9α10 nAChR is 22.9 nM; in the test on α6/α3β2β3 nAChR, 144 nM; in the test with α6/α3β4 nAChR, 982 nM.
